From patent US20140371074A1, “METHOD TO INCREASE PLANT YIELD” (priority 2012, published 2014)

Key:
Format in all cases: in vivo
[1] = system: Soybean variety Latham EX32124 CystX; assay: Greenhouse: 2,4-D LV4 drizzled onto soil of potted plants, pod and node counts; settings: for Average pods per normal node / Megacluster nodes / Normal nodes / Total nodes with pods / Pods on megacluster nodes / Pods on normal nodes / Average pods per megacluster node: 2 plants/pot; for Pods on megacluster nodes / Pods on normal nodes / Total pods per pot (2 plants): immature pods
Description: Soybean variety ‘Latham EX32124 CystX’ was planted in 8.5 inch diameter pots and grown under lights in a greenhouse. Four seeds each were planted and later thinned to 2 plants per plot for each of 5 treatment rates of 0.47, 0.94, 1.88, 3.76, and 7.52 pounds a.e. of 2,4-D per acre. […] When the soybean plants were at the stage of growth in which pods are 3/16 inch length at one of the two uppermost nodes, the number of beginning pods was observed.
At this stage, household fertilizer was added to the plants along with water, and the number of nodes and pods was observed approximately ten days later, as shown in Table 3. Pod counts were for 2 plants per pot.

[2] = system: soybean Latham 2767 Roundup Ready; assay: Field: seed treatment with 2,4-D solution 1X-10X, Laurel, Iowa (Table 6); settings: 1X~0.0002968 lb a.e.
Description: Previously untreated soybean seeds were treated with between 1X to 10X of 2,4-D solution, where 1X is equivalent to approximately 0.0002968 pounds acid equivalent of 2,4-D. The seed variety was Latham 2767 Roundup Ready seeds and seeds were planted in Laurel, Iowa with a row width of 30 inches. Plants were sprayed with foliar insecticide and fungicide.

soybean variety L2438R2 = assay: Field: seed treatment with 2,4-D mixture 0.01-0.09 ounces per 100 pounds of seed, Laurel, Iowa (Table 7)
Description: Previously untreated soybean seeds were treated with between 0.01 ounces to 0.09 ounces of 2,4-D solution per 100 pounds of seed, in which 0.01 ounces is equivalent to 0.0002968 pounds acid equivalent of 2,4-D. The seed variety was L2438R2 and seeds were planted in Laurel, Iowa with a row width of 50 inches. Four rows were planted and the middle two rows were harvested.

[3] = 0.01 ounces per 100 pounds of seed
[4] = 0.02 ounces per 100 pounds of seed
[5] = 0.03 ounces per 100 pounds of seed
[6] = 0.04 ounces per 100 pounds of seed
[7] = 0.05 ounces per 100 pounds of seed
[8] = 0.06 ounces per 100 pounds of seed
[9] = 0.07 ounces per 100 pounds of seed
[10] = 0.08 ounces per 100 pounds of seed
[11] = 0.09 ounces per 100 pounds of seed

## O=C(O)COc1ccc(Cl)cc1Cl [2,4-D, 2,4-Dichlorophenoxyacetic acid]
[1]; 0.47 lbs a.e. per acre
  Beginning pods: Normal
[1]; 0.47 lbs a.e.
  Average pods per normal node: 3.9
  Megacluster nodes: 0
  Normal nodes: 7
  Total nodes with pods: 7
  Pods on megacluster nodes: 0
  Pods on normal nodes: 27
  Total pods per pot (2 plants): 27
[1]; 0.94 lbs a.e. per acre
  Beginning pods: huge clusters of pods (megaclusters)
[1]; 0.94 lbs a.e.
  Average pods per megacluster node: 12.5
  Average pods per normal node: 3.6
  Megacluster nodes: 6
  Normal nodes: 5
  Total nodes with pods: 11
  Pods on megacluster nodes: 75
  Pods on normal nodes: 18
  Total pods per pot (2 plants): 93
[1]; 0.94 pounds a.e. of 2,4-D
  number of pods versus untreated plants: over double the number of pods
[1]; 1.88, 3.76, and 7.52 pounds a.e. of 2,4-D per acre
  total number of pods per plant compared to the control: increased total number of pods per plant
[1]; 1.88 lbs a.e. per acre
  Beginning pods: huge clusters of pods (megaclusters)
[1]; 1.88 lbs a.e.
  Average pods per megacluster node: 6.0
  Average pods per normal node: 3.4
  Megacluster nodes: 5
  Normal nodes: 5
  Total nodes with pods: 10
  Pods on megacluster nodes: 30
  Pods on normal nodes: 17
  Total pods per pot (2 plants): 49
[1]; 3.76 lbs a.e. per acre
  Beginning pods: Normal
[1]; 3.76 lbs a.e.
  Average pods per megacluster node: 9.0
  Average pods per normal node: 4.8
  Megacluster nodes: 3
  Normal nodes: 5
  Total nodes with pods: 8
  Pods on megacluster nodes: 27
  Pods on normal nodes: 24
  Total pods per pot (2 plants): 51
[1]; 7.52 lbs a.e. per acre
  Beginning pods: Normal
[1]; 7.52 lbs a.e.
  Average pods per megacluster node: 9.0
  Average pods per normal node: 3.6
  Megacluster nodes: 2
  Normal nodes: 7
  Total nodes with pods: 9
  Pods on megacluster nodes: 18
  Pods on normal nodes: 25
  Total pods per pot (2 plants): 43
[1]; 7.52 pounds a.e. rate
  leaf damage: some yellowing of leaves
[1]; between 0.47 and 7.52 pounds a.e. of 2,4-D per acre
  pod set: excessive numbers of pods at every node
[1]; treated plants, 0.47-7.52 pounds a.e. per acre
  mature slower and stay greener, longer than untreated plants: approximately 2 weeks
[2]; 1X seed treatment
  Harvested weight: 125 g
  Yield (Bushels/acre at 13% moisture): 60.71 Bushels/acre
[2]; 2X seed treatment
  Harvested weight: 90 g
  Yield (Bushels/acre at 13% moisture): 42.26 Bushels/acre
[2]; 3X seed treatment
  Harvested weight: 100 g
  Yield (Bushels/acre at 13% moisture): 45.23 Bushels/acre
[2]; 4X seed treatment
  Harvested weight: 100 g
  Yield (Bushels/acre at 13% moisture): 44.23 Bushels/acre
[2]; 5X seed treatment
  Harvested weight: 105 g
  Yield (Bushels/acre at 13% moisture): 45.33 Bushels/acre
[2]; 6X seed treatment
  Harvested weight: 110 g
  Yield (Bushels/acre at 13% moisture): 48.22 Bushels/acre
[2]; 7X seed treatment
  Harvested weight: 105 g
  Yield (Bushels/acre at 13% moisture): 44.36 Bushels/acre
[2]; 8X seed treatment
  Harvested weight: 110 g
  Yield (Bushels/acre at 13% moisture): 46.32 Bushels/acre
[2]; 9X seed treatment
  Harvested weight: 100 g
  Yield (Bushels/acre at 13% moisture): 43.06 Bushels/acre
[2]; 10X seed treatment
  Harvested weight: 95 g
  Yield (Bushels/acre at 13% moisture): 42.12 Bushels/acre
Soybean variety L2438R2; [3]
  Repetition 1 Total weight: 14.80 pounds
  Repetition 1 Yield: 46.49 Bu/acre
  Repetition 2 Total weight: 15.60 pounds
  Repetition 2 Yield: 48.92 Bu/acre
  Total yield (total average yield): 47.70 Bu/acre
Soybean variety L2438R2; [4]
  Repetition 1 Total weight: 15.90 pounds
  Repetition 1 Yield: 50.21 Bu/acre
  Repetition 2 Total weight: 16.10 pounds
  Repetition 2 Yield: 50.65 Bu/acre
  Total yield (total average yield): 50.43 Bu/acre
Soybean variety L2438R2; [5]
  Repetition 1 Total weight: 15.60 pounds
  Repetition 1 Yield: 49.26 Bu/acre
  Repetition 2 Total weight: 14.90 pounds
  Repetition 2 Yield: 47.12 Bu/acre
  Total yield (total average yield): 48.19 Bu/acre
Soybean variety L2438R2; [6]
  Repetition 1 Total weight: 16.40 pounds
  Repetition 1 Yield: 49.46 Bu/acre
  Repetition 2 Total weight: 15.90 pounds
  Repetition 2 Yield: 47.45 Bu/acre
  Total yield (total average yield): 48.45 Bu/acre
Soybean variety L2438R2; [7]
  Repetition 1 Total weight: 16.10 pounds
  Repetition 1 Yield: 47.48 Bu/acre
  Repetition 2 Total weight: 16.00 pounds
  Repetition 2 Yield: 49.21 Bu/acre
  Total yield (total average yield): 48.35 Bu/acre
Soybean variety L2438R2; [8]
  Repetition 1 Total weight: 15.50 pounds
  Repetition 1 Yield: 46.85 Bu/acre
  Repetition 2 Total weight: 14.90 pounds
  Repetition 2 Yield: 45.78 Bu/acre
  Total yield (total average yield): 46.31 Bu/acre
Soybean variety L2438R2; [9]
  Repetition 1 Total weight: 14.50 pounds
  Repetition 1 Yield: 44.99 Bu/acre
  Repetition 2 Total weight: 14.90 pounds
  Repetition 2 Yield: 46.13 Bu/acre
  Total yield (total average yield): 45.56 Bu/acre
Soybean variety L2438R2; [10]
  Repetition 1 Total weight: 13.40 pounds
  Repetition 1 Yield: 41.93 Bu/acre
  Repetition 2 Total weight: 14.30 pounds
  Repetition 2 Yield: 44.99 Bu/acre
  Total yield (total average yield): 43.46 Bu/acre
Soybean variety L2438R2; [11]
  Repetition 1 Total weight: 14.90 pounds
  Repetition 1 Yield: 46.40 Bu/acre
  Repetition 2 Total weight: 14.00 pounds
  Repetition 2 Yield: 43.83 Bu/acre
  Total yield (total average yield): 45.12 Bu/acre
Soybean variety L2438R2; Average over 0.01-0.09 ounces
  Repetition 1 Total weight: 15.23 pounds
  Repetition 1 Yield: 47.01 Bu/acre
  Repetition 2 Total weight: 15.18 pounds
  Repetition 2 Yield: 47.12 Bu/acre
  Total yield (total average yield): 47.06 Bu/acre
